This note sets out measurements from ChEMBL document CHEMBL1126458, “Structurally novel antiarrhythmic / antioxidant quinazolines” (Bioorg Med Chem Lett, 1992).

The species named for series [1] is Canis familiaris. The experiment in a line: Resting potential on Isolated Canine Purkinje Fibers at 10 uM concentration. It counts as functional, Canis lupus familiaris, Purkinje fiber.
The species entered for series [2] is Canis familiaris. The experiment in a line: Action potential duration at 95% of repolarization was determined at 10 uM concentration on Isolated Canine Purkinje Fibers. It counts as functional, Canis lupus familiaris, Purkinje fiber.
The species named for series [3] is Canis familiaris. The experiment in a line: Action potential amplitude at 10 uM concentration on Isolated Canine Purkinje Fibers was determined. It counts as functional, Canis lupus familiaris, Purkinje fiber.
The species entered for series [4] is Canis familiaris. Put plainly: Action potential duration at 50% of repolarization was determined at 10 uM concentration on Isolated Canine Purkinje Fibers. It counts as functional, Canis lupus familiaris, Purkinje fiber.
For series [5], the species on record is Canis familiaris. Put plainly: Compound was evaluated for conduction time from stimulating to intracellular recording electrode at 10 uM concentration on Isolated Canine Purkinje Fibers. It is filed as functional, Canis lupus familiaris, Purkinje fiber.
The nature of series [6]: Oxidation potential as carbon paste disc electrode against a Ag/AgCl reference electrode.
Series [7] is filed under the species Homo sapiens. The experiment in a line: Inhibition of C5a-induced luminol dependent chemiluminescence of human neutrophils. It counts as functional.
For another series, the species on record is Oryctolagus cuniculus. The experiment in a line: In vitro inhibition of iron-dependent peroxidation of rabbit brain vesicular membrane lipids. It counts as functional.
The species named for series [8] is Canis familiaris. The experiment in a line: Action potential duration at 50% of repolarization was determined at 100 uM concentration on Isolated Canine Purkinje Fibers. It is filed as functional, Canis lupus familiaris, Purkinje fiber.
Series [9] in a line: Plasma concentration in dogs when measured 1 and 5 hours following initiation of reperfusion at 300 min. It is filed as ADME, organism-based, Canis lupus familiaris. Particulars: dog; call rule not given here.
For series [10], the species on record is Canis familiaris. Put plainly: Resting potential on Isolated Canine Purkinje Fibers at 100 uM concentration. It counts as functional, Canis lupus familiaris, Purkinje fiber.
The species named for series [11] is Canis familiaris. The experiment in a line: Maximal rate of depolarization at 100 uM concentration on Isolated Canine Purkinje Fibers. It counts as functional. The following applies: Canis lupus familiaris, Purkinje fiber.
Series [12] can be described thus: Plasma concentration in dogs when measured 1 and 5 hours following initiation of reperfusion at 30 min. It is filed as ADME, organism-based, Canis lupus familiaris. Particulars: dog.
A short description of series [13]: Plasma concentration in dogs when measured 1 and 5 hours following initiation of reperfusion at 60 min. It counts as ADME, organism-based, Canis lupus familiaris. The following applies: dog.
For series [14], the species on record is Canis familiaris. The experiment in a line: Action potential amplitude at 100 uM concentration on Isolated Canine Purkinje Fibers was determined. It counts as functional, Canis lupus familiaris, Purkinje fiber.
The species entered for series [15] is Canis familiaris. The experiment in a line: Compound was evaluated for conduction time from stimulating to intracellular recording electrode at 100 uM concentration on Isolated Canine Purkinje Fibers. It is filed as functional, Canis lupus familiaris, Purkinje fiber.
For series [16], the species on record is Canis familiaris. Put plainly: Maximal rate of depolarization at 10 uM concentration on Isolated Canine Purkinje Fibers. It is filed as functional. Particulars: Canis lupus familiaris, Purkinje fiber.
Series [17] is filed under the species Homo sapiens. Put plainly: Inhibition of C5a-induced luminol dependent chemiluminescence of human neutrophils; NS - Not sufficiently soluble in saline for testing. It is filed as functional.
The species named for series [18] is Homo sapiens. The experiment in a line: Inhibition of C5a-induced luminol dependent chemiluminescence of human neutrophils; NA - compound found inactive at 10 uM. It is filed as functional.

Values after ≈ are worked out from the molar mass of the structure shown.

`CCN(CC)c1nc(NCCNC(=O)c2cc(OC)c(OC)c(OC)c2)c2ccccc2n1` [listing 1 of 2 here] returned an RP in the series listed under Canis familiaris [1] of -4 mV. The molecule further yielded an APD95 in the series listed under Canis familiaris [2] of -24 ms. The APA in the series filed under Canis familiaris [3] was -14.4 mV. Besides, the APD50 in the series listed under Canis familiaris [4] is -46 ms. This molecule also displayed a CT in the series filed under Canis familiaris [5] of 123 ms.
As for `CCN(CC)c1nc(NCCNC(=O)c2cc(O)c(O)c(OC)c2)c2ccccc2n1`, the E1/2 in series [6] is 130 mV. In addition, the EC50 – broadly, the concentration at which the effect is half-maximal – in the series listed under Homo sapiens [7] was 0.9 µM. Besides, the MIC – broadly, the lowest concentration found to suppress growth – in the series listed under Oryctolagus cuniculus was determined as 10 µM (≈ 4.25 µg/mL).
As to `CCN(CC)c1nc(NCCNC(=O)c2cc(O)c(O)c(O)c2)c2ccccc2n1.CS(=O)(=O)O`, the APD95 in the series filed under Canis familiaris [8] worked out at 11 ms; in the series listed under Canis familiaris [2], 1 ms. The same molecule showed an E1/2 in series [6] of 15 mV. For the same molecule, the RP is 0 mV in the series filed under Canis familiaris [1] and -4 mV in the series filed under Canis familiaris [10]. The molecule also displayed an EC50 in the series listed under Homo sapiens [7] of 0.3 µM. The molecule also registered a concentration at 5 h in series [9] of 1300 ng/mL. Moreover, the Vmax in the series listed under Canis familiaris [11] was -32 V s-1; in the series listed under Canis familiaris [16], -2 V s-1. This molecule also showed a concentration at 30 min in series [12] of 240 ng/mL. Besides, the concentration at 60 min in series [13] was 1700 ng/mL. Besides, the APD50 in the series listed under Canis familiaris [14] is given as -13 ms; in the series filed under Canis familiaris [4], -1 ms. In addition, the APA in the series listed under Canis familiaris [3] is reported as 0 mV; in the series listed under Canis familiaris [15], -9 mV. The MIC in the series filed under Oryctolagus cuniculus stood at 3 µM. Also, the results for the CT in the series listed under Canis familiaris [15] and in the series filed under Canis familiaris [5] were 11 ms and 7 ms, respectively.
Turning to `CCN(CC)c1nc(NCCNC(=O)c2cc(OC)c(O)c(OC)c2)c2ccccc2n1`, the E1/2 in series [6] came out at 340 mV. In the series listed under Homo sapiens [7], this molecule gave an EC50 of 3.3 µM. The same molecule showed an MIC in the series listed under Oryctolagus cuniculus of over 100 µM.
In turn, `CCN(CC)c1nc(NCCNC(=O)c2ccccc2)c2ccccc2n1.O=C(O)C(=O)O` came in with an RP in the series listed under Canis familiaris [1] of -3 mV. This molecule showed an APD95 in the series filed under Canis familiaris [2] of -2 ms. This molecule also returned an APA in the series listed under Canis familiaris [3] of -15 mV. The same molecule showed an APD50 in the series filed under Canis familiaris [4] of -34 ms. The same molecule had a CT in the series listed under Canis familiaris [5] of 119 ms. In the series listed under Canis familiaris [16], the Vmax is -43 V s-1.
`CCN(CC)c1nc(NCCNC(=O)c2ccc(F)cc2)c2ccccc2n1.O=C(O)C(=O)O` came in with an RP in the series filed under Canis familiaris [1] of -3 mV. For the same molecule, the APD95 in the series filed under Canis familiaris [2] came out at 1 ms. In addition, the APA in the series filed under Canis familiaris [3] is on record as -15 mV. The same molecule gave an APD50 in the series listed under Canis familiaris [4] of -48 ms. Besides, the CT in the series filed under Canis familiaris [5] stood at 72 ms. The Vmax in the series listed under Canis familiaris [16] was -54 V s-1.
Molecule `CCN(CC)c1nc(NCCNC(=O)c2cc(O)c(OC)c(O)c2)c2ccccc2n1` came in with an E1/2 in series [6] of 320 mV. In the series listed under Homo sapiens [7], this molecule gave an EC50 of 9.5 µM. In the series listed under Oryctolagus cuniculus, this molecule yielded an MIC of over 100 µM.
In turn, `CCN(CC)c1nc(NCCNC(=O)c2cc(O)c(OC)c(OC)c2)c2ccccc2n1.CS(=O)(=O)O` gave an E1/2 in series [6] of 440 mV. In the series filed under Oryctolagus cuniculus, this molecule registered an MIC of over 100 µM. Besides, the EC50 entry in the series listed under Homo sapiens [17] is recorded as “Not Active”.
`CCN(CC)c1nc(NCCNC(=O)c2cc(OC)c(OC)c(OC)c2)c2ccccc2n1` [listing 2 of 2 here]: in [6], the E1/2 is over 600 mV. Further, in the series filed under Canis familiaris [16], the Vmax is -40 V s-1.
Consider `CCN(CC)c1nc(NCCNC(=O)c2ccccc2OC)c2ccccc2n1`, for which the RP in the series listed under Canis familiaris [1] is given as -15 mV. This molecule gave an APD95 in the series filed under Canis familiaris [2] of 15 ms. Also, the APA in the series listed under Canis familiaris [3] was -31 mV. For the same molecule, the APD50 in the series filed under Canis familiaris [4] was -24 ms. The CT in the series filed under Canis familiaris [5] came out at 71 ms. The Vmax in the series filed under Canis familiaris [16] is -71 V s-1.
With `CCN(CC)c1nc(NCCNC(=O)c2cc(OC)c(OC)c(OC)c2)c2ccccc2n1.CS(=O)(=O)O`, in the series filed under Homo sapiens [18], the EC50 result is given as “Not Active”. In addition, in the series listed under Oryctolagus cuniculus, the MIC is over 100 µM.
For the molecule `CCN(CC)c1nc(NCCNC(=O)c2ccc(C(F)(F)F)cc2)c2ccccc2n1.O=C(O)C(=O)O`, the RP in the series listed under Canis familiaris [1] is -7 mV. In the series filed under Canis familiaris [2], this molecule had an APD95 of 2 ms. In the series filed under Canis familiaris [3], the APA is -23 mV. This molecule also came in with an APD50 in the series filed under Canis familiaris [4] of -24 ms. In the series listed under Canis familiaris [5], this molecule came in with a CT of 79 ms. Further, the Vmax in the series filed under Canis familiaris [16] was -62 V s-1.
With `CCN(CC)c1nc(NCCNC(=O)c2ccc(OC)cc2)c2ccccc2n1.O=C(O)C(=O)O`, the RP in the series filed under Canis familiaris [1] was -6 mV. In the series filed under Canis familiaris [2], this molecule showed an APD95 of -5 ms. In the series filed under Canis familiaris [3], this molecule returned an APA of -11 mV. Further, the APD50 in the series listed under Canis familiaris [4] is listed as -35 ms. The molecule further yielded a CT in the series filed under Canis familiaris [5] of 17 ms. Further, the Vmax in the series listed under Canis familiaris [16] is -30 V s-1.
